Data as given in article PMC11731258, “The structural basis for high-affinity c-di-GMP binding to the GSPII-B domain of the traffic ATPase PilF from Thermus thermophilus” (The Journal of Biological Chemistry, 2024).
Several values for one entry are separate records, joined by “and”; a condition that tells them apart may be missing. Equal entries are not always repeated.

What was measured:
[1] = target: PilZ domain of PlzD; set-up: method as in PMID 18034161; settings: cited from earlier work
[2] = test system: PilF GSPII-A domain; assay: ITC comparison of domain truncation constructs; format: binding, Thermus thermophilus; settings: inferred from ITC of PilF1-302 vs PilF159-302 and PilF1-482
Experimental: (§1) To assess the ligand-binding capabilities of the various PilF constructs, triplicates of ITC measurements were recorded for each construct. The measurements were carried out using a MicroCal ITC200 (Malvern Panalytical). All ITC experiments were conducted at 20 °C with 50 mM Tris-HCl pH 7.5, 200 mM sodium chloride, 1 mM β-mercaptoethanol as the sample buffer. All protein samples were extensively dialyzed against the sample buffer and the buffer used for dialysis was used to dilute protein and c-di-GMP samples in preparation for the ITC measurements. Each measurement was conducted using the following protocol. In total, 39.8 μl c-di-GMP were titrated to 270 μl protein in 20 separate injections in 180 s intervals with a stirring speed of 750 rpm. After an initial delay of 120 s, the first injection of 0.2 μl c-di-GMP with a duration of 0.4 s was followed by 19 injections of 2 μl with a duration of 4 s. During the measurement, the feedback mode was set to high and the reference power to 11 μcal s^−1. To optimize precision of the measurements, protein and c-di-GMP concentrations were adjusted to the binding capabilities of the respective constructs and ranged from 5 to 200 μM for protein and 50 to 2000 μM for c-di-GMP. All thermograms were processed using Origin 7.0 (OriginLab) using a one-site– or two-site–binding model dependent on the number of expected binding events.

[3] = target: MshEN (N-terminal domain of ATPase MshE); set-up: method as in PMID 27578558; settings: full length MshEN; cited from earlier work
[4] = target: T1, PilF159-302 Q190E (Thermus thermophilus, UniProt Q5SLC9, Q190E); assay: ITC binding to PilF159-302 Q190E; settings: 20 °C
T1 sequence (Q5SLC9 159-302 Q190E): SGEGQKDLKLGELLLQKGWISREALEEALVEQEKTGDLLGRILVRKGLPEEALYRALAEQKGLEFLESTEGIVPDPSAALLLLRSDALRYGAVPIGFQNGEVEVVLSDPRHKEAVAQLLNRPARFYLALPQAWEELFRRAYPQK
Experimental: as §1

[5] = target: T2, PilF159-302 (GSPII-B domain) (Thermus thermophilus, UniProt Q5SLC9); assay: ITC binding to PilF159-302; settings: for N / ΔH / ΔS / Kd: ITC
T2 sequence (Q5SLC9 159-302): T1 sequence (Q5SLC9 159-302 Q190E)
Experimental: as §1, with “All ITC experiments were conducted at 20 °C with 50 mM Tris-HCl pH 7.5, 200 mM sodium chloride, 1 mM β-mercaptoethanol as the sample buffer.” left out

[6] = target: MshEN lacking the entire C-terminal subdomain; set-up: method as in PMID 27578558; settings: entire C-terminal subdomain deleted; read-out: KD (ligand affinity); cited from earlier work
[7] = target: T3, PilF159-302 L166G (Thermus thermophilus, UniProt Q5SLC9, L166G); assay: ITC binding to PilF159-302 L166G; settings: 20 °C
T3 sequence (Q5SLC9 159-302 L166G): T1 sequence (Q5SLC9 159-302 Q190E)
Experimental: as §1

[8] = target: T4, PilF159-302 K167R (Thermus thermophilus, UniProt Q5SLC9, K167R); assay: ITC binding to PilF159-302 K167R; settings: 20 °C
T4 sequence (Q5SLC9 159-302 K167R): T1 sequence (Q5SLC9 159-302 Q190E)
Experimental: as §1

## Nc1nc2c(ncn2[C@@H]2O[C@@H]3COP(=O)(O)O[C@H]4[C@@H](O)[C@H](n5cnc6c(=O)[nH]c(N)nc65)O[C@@H]4COP(=O)(O)O[C@H]3[C@H]2O)c(=O)[nH]1 [c-di-GMP, cyclic dimeric guanosine monophosphate]
[1]
  Kd: 100 to 300 nM
[2]
  ability to bind c-di-GMP: lacking the ability to bind c-di-GMP
[3]
  Kd: ~500 nM and 500 nM
[4]
  N: 1.11 ± 0.03
  ΔH: -3.389 ± 0.156 kcal/mol
  ΔS: 15.4 ± 0.4 cal/mol/deg
[4]; pH 7.5
  Kd: 950 ± 7 nM
[5]; GSPII-B (KD 6 nM) vs MshEN (KD 500 nM)
  fold higher affinity than MshEN: 83 fold
[5]; 20 °C
  N: 0.66 ± 0.02
  ΔH: -10.795 ± 1.145 kcal/mol
  ΔS: -0.8 ± 4.0 cal/mol/deg
[5]; 45 °C
  N: 0.88 ± 0.11
  ΔH: -13.327 ± 1.389 kcal/mol
  ΔS: -6.6 ± 4.2 cal/mol/deg
  Kd: 20 nM
[5]; 20 °C, pH 7.5
  Kd: 6 nM
[5]; at 20 °C
  increase in the free enthalpy of binding compared to MshEN: ~2.7 kcal/mol
[6]
  Kd: 350 nM
[7]
  N: 0.92 ± 0.10
  ΔH: -10.283 ± 0.189 kcal/mol
  ΔS: 1.2 ± 3.4 cal/mol/deg
[7]; pH 7.5
  Kd: 3 nM
[8]
  N: 0.79 ± 0.03
  ΔH: -10.42 ± 0.552 kcal/mol
  ΔS: -4.4 ± 1.9 cal/mol/deg
[8]; pH 7.5
  Kd: 150 ± 7 nM
